# Laboratory results published in ChEMBL document CHEMBL5518164, “Membrane-permeable tenofovir-di- and monophosphate analogues” (Eur J Med Chem, 2024).
# Activity calls are given as the source filed them. The calls are words filed in the database; no cut-off is given here.
# Tests used:
# [1] = Half life of the compound in phosphate buffer saline at pH 7.3 by RP18-HPLC analysis; format: ADME
# [2] = Half life of the compound in heparin-stabilized human plasma by HPLC analysis; format: ADME, cell-free
# [3] = Half life of the compound in citrate-containing human plasma by HPLC analysis; format: ADME, cell-free
# [4] = Lipophilicity of the compound assessed as retention time by RP-HPLC analysis; format: physicochemical
# [5] = tested on: Human immunodeficiency virus 1; test: Antiviral activity against HIV-1 HE infected in wild type human CEM/0 cells assessed as inhibition of virus-induced giant cell formation incubated for 4 to 5 days by light microscopy; format: functional, organism-based; conditions: Human immunodeficiency virus 1, HE, CCRF-CEM
# [6] = tested on: Human immunodeficiency virus 2; test: Antiviral activity against HIV-2 ROD infected in wild type human CEM/0 cells assessed as inhibition of virus-induced giant cell formation incubated for 4 to 5 days by light microscopy; format: functional, organism-based; conditions: Human immunodeficiency virus 2, ROD, CCRF-CEM
# [7] = tested on: Human immunodeficiency virus 2; test: Antiviral activity against HIV-2 ROD infected in thymidine kinase deficient human CEM cells assessed as inhibition of virus-induced giant cell formation incubated for 4 to 5 days by light microscopy; format: functional, organism-based; conditions: Human immunodeficiency virus 2, ROD, CCRF-CEM
# [8] = Cytotoxicity against human CEM cells assessed as inhibition of cell proliferation; format: toxicity, cell-based, CCRF-CEM
# [9] = Selectivity index, ratio of CC50 for cytotoxicity against human CEM cells to EC50 for antiviral activity against HIV-2 ROD infected in thymidine kinase deficient human CEM cells; format: toxicity, cell-based; conditions: read-out: Ratio CC50/EC50
# [10] = tested on: Human immunodeficiency virus; test: Substrate activity at HIV reverse transcriptase assessed as n+1 band formation incubated for 30 mins in presence of primer/template mixture by primer extension assay based fluorescence analysis
# [11] = tested on: Human immunodeficiency virus; test: Substrate activity at HIV reverse transcriptase assessed as n+1 band formation incubated for 30 mins in presence of primer/template mixture and dNTPs by primer extension assay based fluorescence analysis
# [12] = tested on: Human immunodeficiency virus; test: Substrate activity at HIV reverse transcriptase assessed as full elongation of primer by measuring n+5 band formation incubated for 30 mins in presence of primer/template mixture and dNTPs by primer extension assay based fluorescence analysis
# [13] = tested on: Human immunodeficiency virus; test: Inhibition of HIV reverse transcriptase assessed as inhibition of elongation of primer at 25000 uM incubated for 30 mins in presence of primer/template mixture and dNTPs by primer extension assay based fluorescence analysis
# [14] = tested on: Human immunodeficiency virus; test: Inhibition of HIV reverse transcriptase assessed as inhibition of elongation of primer at 25000 uM incubated for 30 mins in presence of primer/template mixture and 250 uM dNTPs by primer extension assay based fluorescence analysis
# [15] = biological target: T1, DNA polymerase subunit gamma-1 (Homo sapiens) (UniProt P54098); test: Substrate activity at human DNA polymerase gamma assessed as elongation of primer at 250 uM incubated for 120 mins in presence of primer/template mixture by primer extension assay based fluorescence analysis
# T1 sequence (whole entry): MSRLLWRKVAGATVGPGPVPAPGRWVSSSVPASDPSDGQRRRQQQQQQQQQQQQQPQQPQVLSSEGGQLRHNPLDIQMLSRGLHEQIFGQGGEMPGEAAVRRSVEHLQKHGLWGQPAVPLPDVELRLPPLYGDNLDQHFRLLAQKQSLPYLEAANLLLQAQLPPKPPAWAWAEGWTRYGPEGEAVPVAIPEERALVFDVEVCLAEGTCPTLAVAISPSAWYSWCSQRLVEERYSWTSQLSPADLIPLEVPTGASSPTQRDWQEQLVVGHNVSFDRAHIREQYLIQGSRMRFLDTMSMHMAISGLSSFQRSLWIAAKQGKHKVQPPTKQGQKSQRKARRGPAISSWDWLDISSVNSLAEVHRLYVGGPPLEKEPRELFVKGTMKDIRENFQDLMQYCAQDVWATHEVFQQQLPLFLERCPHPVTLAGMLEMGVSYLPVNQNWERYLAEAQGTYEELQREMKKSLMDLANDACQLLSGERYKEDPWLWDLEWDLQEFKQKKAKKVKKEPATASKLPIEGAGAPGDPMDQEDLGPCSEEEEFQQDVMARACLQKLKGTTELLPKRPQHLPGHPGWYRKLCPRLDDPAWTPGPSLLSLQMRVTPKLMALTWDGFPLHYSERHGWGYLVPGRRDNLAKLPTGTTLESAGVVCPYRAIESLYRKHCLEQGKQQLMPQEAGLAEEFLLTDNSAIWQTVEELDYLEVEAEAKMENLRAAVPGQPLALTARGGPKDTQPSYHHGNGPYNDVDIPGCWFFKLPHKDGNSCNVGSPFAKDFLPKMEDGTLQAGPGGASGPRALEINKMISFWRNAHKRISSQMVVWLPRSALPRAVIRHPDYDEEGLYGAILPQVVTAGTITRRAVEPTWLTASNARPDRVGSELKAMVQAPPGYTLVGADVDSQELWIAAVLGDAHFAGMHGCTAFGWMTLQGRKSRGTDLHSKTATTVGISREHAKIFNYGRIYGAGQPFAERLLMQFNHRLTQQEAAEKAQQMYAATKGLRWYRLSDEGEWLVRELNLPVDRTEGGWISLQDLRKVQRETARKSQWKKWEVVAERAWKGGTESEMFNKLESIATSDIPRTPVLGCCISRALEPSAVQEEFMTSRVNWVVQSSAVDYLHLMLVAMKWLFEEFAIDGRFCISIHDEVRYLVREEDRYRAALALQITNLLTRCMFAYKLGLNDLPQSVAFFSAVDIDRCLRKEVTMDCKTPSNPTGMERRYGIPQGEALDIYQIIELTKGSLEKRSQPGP
# [16] = biological target: T1, DNA polymerase subunit gamma-1 (Homo sapiens); test: Substrate activity at human DNA polymerase gamma assessed as elongation of primer at 250 uM incubated for 120 mins in presence of primer/template mixture and dNTPs by primer extension assay based fluorescence analysis
# [17] = tested on: Human immunodeficiency virus; test: Substrate activity at HIV reverse transcriptase assessed as n+1 band formation incubated for 30 mins in presence of primer/template mixture and 2.6 fold excess of dNTPs by primer extension assay based fluorescence analysis
# [18] = Prodrug conversion of the compound in phosphate buffer saline assessed as (R)-9-(2-(phosphonomethoxy)propyl)adenine formation by measuring half life at pH 7.3 by RP18-HPLC analysis; format: ADME
# [19] = Half life of the compound in human CEM/0 cell extracts by RP18-HPLC analysis; format: ADME, CCRF-CEM
# [20] = Prodrug conversion of the compound in phosphate buffer saline assessed as (R)-9-(2-(phosphonomethoxy)propyl)adenine formation by measuring half life in presence of pig liver esterase at pH 7.3 by RP18-HPLC analysis; format: ADME, Sus scrofa
# [21] = Drug hydrolysis in phosphate buffer saline incubated for 500 hrs at pH 7.3 by RP18-HPLC analysis; format: physicochemical; conditions: read-out: Drug degradation
# [22] = Drug hydrolysis in phosphate buffer saline incubated for 600 hrs at pH 7.3 by RP18-HPLC analysis; format: physicochemical; conditions: read-out: Drug degradation
# [23] = Half life of the compound in phosphate buffer saline in presence of pig liver esterase at pH 7.3 by RP18-HPLC analysis; format: ADME, Sus scrofa
# [24] = tested on: Human immunodeficiency virus; test: Substrate activity at HIV reverse transcriptase assessed as elongation of primer at 250 uM incubated for 30 mins in presence of primer/template mixture by primer extension assay based fluorescence analysis
# [25] = tested on: Human immunodeficiency virus; test: Substrate activity at HIV reverse transcriptase assessed as elongation of primer at 250 uM incubated for 30 mins in presence of primer/template mixture and dNTPs by primer extension assay based fluorescence analysis
half-life [1] [h],Retention_time [4] [min],EC50 [5] [nM],EC50 [6] [nM],EC50 [7] [nM],half-life [19] [h],Compound,CC50 [8] [nM],selectivity ratio [9],also measured
–,12.5,5270,5550,4620,–,CCCCCCCCCCCOP(=O)(O)OP(=O)(O)OP(=O)(O)CO[C@H](C)Cn1cnc2c(N)ncnc21,> 100000,> 21,Activity [10]: Active; Activity [11]: inactive; Activity [12]: Active; inhibition [13]: Active; inhibition [14]: Active; Activity [15]: inactive; Activity [16]: Active; Activity [17]: Active
–,18.1,6960,10300,390,1.9,CCCCCCCCCCCCCCCCCCOP(=O)(OCc1ccc(OC(=O)CCCCCC)cc1)OP(=O)(O)OP(=O)(O)CO[C@H](C)Cn1cnc2c(N)ncnc21 (stereo partly specified),> 100000,> 256,t1/2 [18]: 111 h
–,–,1230,620,540,–,CCCCCCCCCCCOP(=O)(OCc1ccc(OC(=O)CCCCCCCC)cc1)OP(=O)(O)OP(=O)(O)CO[C@H](C)Cn1cnc2c(N)ncnc21 (stereo partly specified),> 100000,> 185,–
–,16.8,390,120,67,2.6,CCCCCCCCCCCCCCCCCCOP(=O)(OCc1ccc(OC(=O)CC)cc1)OP(=O)(O)OP(=O)(O)CO[C@H](C)Cn1cnc2c(N)ncnc21 (stereo partly specified),51100,762,t1/2 [18]: 72 h
> 1000,9.7,4270,1220,2540,–,CCCCOP(=O)(OCCCC)OP(=O)(O)OP(=O)(O)CO[C@H](C)Cn1cnc2c(N)ncnc21,> 100000,> 39,–
–,–,–,–,–,–,CC(C)OC(=O)[C@H](C)N[P@](=O)(CO[C@H](C)Cn1cnc2c(N)ncnc21)Oc1ccccc1.CC(C)OC(=O)[C@H](C)N[P@](=O)(CO[C@H](C)Cn1cnc2c(N)ncnc21)Oc1ccccc1.O=C(O)/C=C/C(=O)O [TENOFOVIR ALAFENAMIDE FUMARATE],–,–,half-life [2]: 1.5 h; half-life [3]: 1.5 h
–,19.1,450,770,310,3.5,CCCCCCCCCCCCCCCCCCOP(=O)(OCc1ccc(OC(=O)CCCCCCCC)cc1)OP(=O)(O)OP(=O)(O)CO[C@H](C)Cn1cnc2c(N)ncnc21 (stereo partly specified),> 100000,> 322,t1/2 [18]: 24 h; t1/2 [20]: 2.15 h
> 500,16.3,640,140,55,> 8,CCCCCCCCCCCCCCCCCCP(=O)(OCCCCCCCC)OP(=O)(O)OP(=O)(O)CO[C@H](C)Cn1cnc2c(N)ncnc21 (stereo partly specified),48500,882,degraded at 500 h [21]: 36%; degraded at 600 h [22]: 43%
–,–,–,–,–,–,Nc1ncnc2c1ncn2[C@H]1C[C@H](O)[C@@H](COP(=O)(O)OP(=O)(O)OP(=O)(O)O)O1,–,–,Activity [11]: Active
220,15.6,61,35,65,> 20,CCCCCCCCCCCCOP(=O)(OCCCCCCCCCCCC)OP(=O)(O)OP(=O)(O)CO[C@H](C)Cn1cnc2c(N)ncnc21,44700,688,half-life [23]: > 100 h
26.5,20.1,73,32,22,> 8,CCCCCCCCCCCCCCCCCCP(=O)(OCCCCCCCC)OP(=O)(O)CO[C@H](C)Cn1cnc2c(N)ncnc21 (stereo partly specified),45200,2050,–
> 1000,6.6,2080,1760,880,–,C[C@H](Cn1cnc2c(N)ncnc21)OCP(=O)(O)O [TENOFOVIR ANHYDROUS],> 100000,> 113,Activity [24]: inactive; Activity [25]: Active; Activity [15]: inactive
–,–,–,–,–,–,C[C@H](Cn1cnc2c(N)ncnc21)OCP(=O)(O)OP(=O)(O)O,–,–,Activity [24]: Active; Activity [25]: Active; Activity [15]: inactive
207,16.6,160,50,100,> 8,CCCCCCCCCCCCCCCCCCOP(=O)(OCCCCCCCC)OP(=O)(O)OP(=O)(O)CO[C@H](C)Cn1cnc2c(N)ncnc21 (stereo partly specified),44700,447,–

Compound,half-life [1] [h],Retention_time [4] [min],EC50 [5] [nM],EC50 [6] [nM],EC50 [7] [nM],half-life [19] [h],CC50 [8] [nM],selectivity ratio [9],also measured
CC(C)OC(=O)OCOP(=O)(CO[C@H](C)Cn1cnc2c(N)ncnc21)OCOC(=O)OC(C)C.O=C(O)/C=C/C(=O)O [TENOFOVIR DISOPROXIL FUMARATE],27.8,10.1,13,3,3,–,> 5000,> 1430,half-life [2]: 0.167 h; half-life [3]: 0.167 h
CCCCCCCCCCCC(=O)Oc1ccc(COOP(=O)(O)OP(=O)(O)OP(=O)(O)CO[C@H](C)Cn2cnc3c(N)ncnc32)cc1,–,–,460,230,300,–,> 100000,> 333,–
